Measurements from patent US11401271B2, “Fused heterocyclic compound, pyrazole-ring-containing fused heterocyclic compound, agricultural composition containing thereof, and method of using the composition” (SOUTH CHINA AGRICULTURAL UNIVERSITY, priority 2017, dated 2022).
Like-named read-outs stand apart in the source and are kept apart here.

Experiments:
Experiment in all cases: whole plant or invertebrate
Type in all cases: in vivo
[1] = system: Plutella xylostella; conditions: for mortality at 500 ppm: Plutella xylostella, read-out: Plutella xylostella Mortality (%) 500 ppm
Method in brief: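 Cabbage leaf discs dipped 5 s in compound at 500 ppm (0.05% Tween-80 aqueous), air-dried, fed to about 35 2nd-instar larvae at 28° C., triplicate. Dead larvae counted after 24 h; mortality (%) corrected against Tween-80 control.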

[2] = system: Aphis craccivora; conditions: for mortality at 500 ppm: Aphis craccivora, read-out: Aphis craccivora Mortality (%) 500 ppm; for Aphis craccivora Mortality (%): immersion 5 seconds, counted after 24 hours
Method in brief: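 Wingless adults feeding on bean sprouts were dipped with the sprouts for 5 s in 500 ppm compound in aqueous 0.05% Tween-80, air-dried, then held at 23° C. Dead aphids counted after 24 h, triplicate, with 0.05% Tween-80 as control. Mortality (%) = (control live − treated live)/control live × 100.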

[3] = system: Spodoptera exigua; conditions: for mortality at 500 ppm: Spodoptera exigua, read-out: Spodoptera exigua Mortality (%) 500 ppm
Method in brief: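 Cabbage leaf discs dipped 5 s in 500 ppm compound (0.05% Tween-80 aqueous), air-dried, fed to about 35 2nd-instar larvae at 28° C, three replicates. Deaths counted at 24 h; mortality corrected against Tween-80 control.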

[4] = system: Solenopsis invicta; conditions: water test tube poison-feeding; for mortality at 100 ppm: Solenopsis invicta
Method in brief: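 Fire ants fed compound by water test-tube poison-feeding at 100 ppm in aqueous 0.05% Tween-80/5% honey (from 10 g/L DMSO stock), kept at 25 °C. Live and dead ants counted at 24 and 72 h; mortality (%) calculated relative to live ants in the untreated control.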

[5] = 500 ppm, 2nd-instar larvae, leaf immersion feeding
[6] = 500 ppm, wingless adults, impregnation method, 24 hours
[7] = 500 ppm, 2nd-instar larvae, leaf immersion feeding, 24 hours
[8] = 24 h, read-out: Solenopsis invicta Mortality (%) 100 ppm 24 h, 100 ppm, 24 h
[9] = 72 h, read-out: Solenopsis invicta Mortality (%) 100 ppm 72 h, 100 ppm, 72 h

| SMILES | mortality at 500 ppm [1] [%] | mortality at 500 ppm ([2]; 24 h) [%] | mortality at 500 ppm ([3]; 24 h) [%] | mortality at 100 ppm [4, 8] [%] | mortality at 100 ppm [4, 9] [%] | Plutella xylostella Mortality (%) [1, 5] [%] | Aphis craccivora Mortality (%) ([2]; 500 ppm, wingless adults) | Spodoptera exigua Mortality (%) [3, 5] [%] | Solenopsis invicta Mortality (%) 24 h ([4]; 100 ppm, 24 h) [%] | Solenopsis invicta Mortality (%) 72 h ([4]; 100 ppm, 72 h) [%] | other results |
| --- | --- | --- | --- | --- | --- | --- | --- | --- | --- | --- | --- |
| CC1(C)Nc2c([S+]([O-])C(F)(F)F)c(C#N)nn2-c2ncc(C(F)(F)F)cc21 (centres unmarked) [a-51] | – | – | – | – | – | – | – | – | – | – | Plutella xylostella Mortality (%) 500 ppm [1, 5]: 91%; Aphis craccivora Mortality (%) 500 ppm [2, 6]: 100%; Spodoptera exigua Mortality (%) 500 ppm [3, 7]: 89%; Solenopsis invicta Mortality (%) 100 ppm 24 h ([4]; 100 ppm, 24 h): 16%; Solenopsis invicta Mortality (%) 100 ppm 72 h ([4]; 100 ppm, 72 h): 95% |
| CNC(=O)c1nn2c(c1Br)NC(C)(C)c1ccccc1-2 [Compound A6] | 100 | 100 | 100 | 44 | 100 | – | – | – | – | – | – |
| COC(=O)Nc1cc2n(n1)-c1cnccc1C(F)(CC(F)(F)F)N2 (centres unmarked) [Compound A40] | – | – | – | – | – | – | – | – | – | – | mortality at 500 ppm [1, 5]: 96%; mortality at 500 ppm [2, 6]: 100%; mortality at 500 ppm [3, 7]: 100%; mortality at 100 ppm ([4]; 24 h, 100 ppm, 24 h, read-out: Solenopsis invicta Mortality (%) 100 ppm 24 h): 20%; mortality at 100 ppm ([4]; 72 h, 100 ppm, 72 h, read-out: Solenopsis invicta Mortality (%) 100 ppm 72 h): 97% |
| COC(=O)CC1(C#N)Nc2c([S+]([O-])C(F)(F)F)c(C#N)nn2-c2ncc(C(F)(F)F)cc21 (centres unmarked) [a-56] | – | – | – | – | – | – | – | – | – | – | Plutella xylostella Mortality (%) 500 ppm [1, 5]: 100%; Aphis craccivora Mortality (%) 500 ppm [2, 6]: 100%; Spodoptera exigua Mortality (%) 500 ppm [3, 7]: 90%; Solenopsis invicta Mortality (%) 100 ppm 24 h ([4]; 100 ppm, 24 h): 16%; Solenopsis invicta Mortality (%) 100 ppm 72 h ([4]; 100 ppm, 72 h): 93% |
| COC(=O)CC1Nc2c(OC(F)(F)F)c(C#N)nn2-c2cncc(Cl)c21 (centres unmarked) [b-111] | – | – | – | – | – | 100 | 100 | 100 | 24 | 100 | – |
| COC(=O)CC1(C(=O)OC)Nc2c(C#N)c(C(F)(F)F)nn2-c2cncc(Cl)c21 (centres unmarked) [b-136] | – | – | – | – | – | 100 | 100 | 100 | 20 | 97 | – |
| N#Cc1nn2c(c1[S+]([O-])C(F)(F)F)NC(CC(F)(F)F)c1cc(C(F)(F)F)cc(Cl)c1-2 (stereo not drawn) [d-85] | – | – | – | – | – | 100 | 100 | 100 | 30 | 100 | – |
| CCOC(=O)CC1(C(=O)OC)Nc2c([S+]([O-])C(F)(F)F)c(C#N)nn2-c2c(C(F)(F)F)ccc(Cl)c21 (centres unmarked) [e-2] | – | – | – | – | – | 100 | 100 | 100 | 25 | 100 | – |
| Cc1cc(-c2c(C#N)nn3c2NC(C(O)CO)(C(F)(F)F)c2cc(C(F)(F)F)cc(Cl)c2-3)c(C)o1 (centres unmarked) [Compound C54] | 77 | 87 | 78 | 17 | 84 | – | – | – | – | – | – |
| CSc1nn2c(c1C#N)N(S(C)(=O)=O)C(F)(C(F)(F)F)c1ccccc1-2 (centres unmarked) [Compound A33] | 100 | 100 | 100 | 24 | 100 | – | – | – | – | – | – |
| Cc1ccc(S(=O)(=O)Nc2c(C#N)nn3c2NC(C)(C)c2ccccc2-3)cc1 [Compound A20] | 100 | 100 | 90 | 26 | 93 | – | – | – | – | – | – |
| N#Cc1nn2c(c1[S+]([O-])C(F)(F)F)NC(Cl)(Cl)c1cc(C(F)(F)F)cnc1-2 (stereo not drawn) [a-44, 5,5-dichloro-7-trifluoromethyl-3-trifluoromethylsulfinyl-4,5-dihydropyrazole[1,5-α]quinazoline[3,2-e]pyridine-2-cyano] | – | – | – | – | – | – | – | – | – | – | Plutella xylostella Mortality (%) 500 ppm [1, 5]: 100%; Aphis craccivora Mortality (%) 500 ppm [2, 6]: 100%; Spodoptera exigua Mortality (%) 500 ppm [3, 7]: 95%; Solenopsis invicta Mortality (%) 100 ppm 24 h ([4]; 100 ppm, 24 h): 15%; Solenopsis invicta Mortality (%) 100 ppm 72 h ([4]; 100 ppm, 72 h): 95% |
| COC(=O)CC1(C#N)Nc2c([S+]([O-])C(F)(F)F)c(C#N)nn2-c2c(Cl)cc(C(F)(F)F)cc21 (stereo not drawn) [d-67] | – | – | – | – | – | 100 | 100 | 90 | 41 | 99 | – |
